Values quoted from earlier work in US9446050B2, “Method for treatment of mesothelioma” (THE BRIGHAM AND WOMEN'S HOSPITAL, INC., priority 2011, dated 2016).

Columns and labels:
[1] = system: mesothelioma; settings: large-dose single treatment in combination with leucovin
[2] = system: mesothelioma; settings: single agent

CN(Cc1cnc2nc(N)nc(N)c2n1)c1ccc(C(=O)N[C@@H](CCC(=O)O)C(=O)O)cc1 [methotrexate]
efficacy rate [1]: 37%

Nc1nc2[nH]cc(CCc3ccc(C(=O)N[C@@H](CCC(=O)O)C(=O)O)cc3)c2c(=O)[nH]1 [pemetrexed]
median overall survival [2]: 10.7 months | response rate [2]: 14.1%
